Assay results reported in patent US10221156B2, “Pyridin-3-yl acetic acid derivatives as inhibitors of human immunodeficiency virus replication” (ViiV HEALTHCARE UK (No. 5) LIMITED, priority 2015, dated 2019).
Read-outs that look alike come from different tables or passages of the source.

Tested on: recombinant NL-RLuc virus (HIV NL4-3 with Renilla Luciferase) in MT-2 cells
Assay: Inhibition of HIV replication (NL-RLuc virus in MT-2 cells, luciferase readout)
Type: cell-based
Excerpt: Inhibition of HIV Replication:
A recombinant NL-RLuc proviral clone was constructed in which a section of the nef gene from NL4-3 was replaced with the Renilla Luciferase gene. This virus is fully infectious and can undergo multiple cycles of replication in cell culture. In addition, the luciferous reporter provides a simple and easy method for quantitating the extent of virus growth and consequently, the antiviral activity of test compounds. The plasmid pNLRLuc contains the proviral NL-Rluc DNA cloned into pUC18 at the PvuII site. The NL-RLuc virus was prepared by transfection of 293T cells with the plasmid pNLRLuc. Transfections were performed using the LipofectAMINE PLUS kit from Invitrogen (Carlsbad, Calif.) according to the manufacturer and the virus generated was titered in MT-2 cells. For susceptibility analyses, the titrated virus was used to infect MT-2 cells in the presence of compound, and after 5 days of incubation, cells were processed and quantitated for virus growth by the amount of expressed luciferase. Assay media was RPMI 1640 supplemented with 10% heat inactivated fetal bovine serum (FBS), 100 units/ml penicillin G/100 units/ml streptomycin, 10 mM HEPES buffer pH 7.55 and 2 mM L-glutamine. The results from at least 2 experiments were used to calculate the EC50 values. Luciferase was quantitated using the Dual Luciferase kit from Promega (Madison, Wis.). Susceptibility of viruses to compounds was determined by incubation in the presence of serial dilutions of the compound. The 50% effective concentration (EC50) was calculated by using the exponential form of the median effect equation where (Fa)=1/[1+(ED50/drug conc.)^m] (Johnson V A, Byington R T. Infectivity Assay. In Techniques in HIV Research. ed. Aldovini A, Walker B D. 71-76. New York: Stockton Press. 1990). Activity equal to A refers to a compound having an EC50≤100 nM, while B and C denote compounds having an EC50 between 100 nM and 1 uM (B) or >1 uM (C).

SMILES | EC50 ({}) | EC50 (MT2, 120 h, read-out: Activity) | EC50 (MT2, 120 h, read-out: EC50 μM)
Cc1nc(C)c([C@H](OC(C)(C)C)C(=O)O)c(N2CCC(C)(C)CC2)c1-c1ccc(OCC2CCC(C)CC2)cc1 (stereo partly drawn) [Example 9, (S)-2-(tert-Butoxy)-2-(4-(4,4-dimethylpiperidin-1-yl)-2,6-dimethyl-5-(4-((4-methylcyclohexyl)methoxy)phenyl)pyridin-3-yl)acetic Acid] | < 0.1 µM | – | –
Cc1nc(C)c([C@H](OC(C)(C)C)C(=O)O)c(N2CCC(C)(C)CC2)c1-c1ccc(OC2COCC2c2ccc(F)cc2)cc1 (stereo partly drawn) [Example 20, (2S)-2-(tert-Butoxy)-2-(4-(4,4-dimethylpiperidin-1-yl)-5-(4-((4-(4-fluorophenyl)tetrahydrofuran-3-yl)oxy)phenyl)-2,6-dimethylpyridin-3-yl)acetic acid] | < 0.1 µM | – | –
Cc1nc(C)c([C@H](OC(C)(C)C)C(=O)O)c(N2CCC(C)(C)CC2)c1-c1ccc(OC2Cc3ccccc3C2)cc1 [Example 12, (S)-2-(tert-Butoxy)-2-(5-(4-((2,3-dihydro-1H-inden-2-yl)oxy)phenyl)-4-(4,4-dimethylpiperidin-1-yl)-2,6-dimethylpyridin-3-yl)acetic Acid] | – | < 0.1 µM | –
Cc1nc(C)c([C@H](OC(C)(C)C)C(=O)O)c(N2CCC(C)(C)CC2)c1-c1ccc(OCCN2CCS(=O)(=O)CC2)cc1 [Example 14, (S)-2-(tert-Butoxy)-2-(4-(4,4-dimethylpiperidin-1-yl)-5-(4-(2-(1,1-dioxidothiomorpholino)ethoxy)phenyl)-2,6-dimethylpyridin-3-yl)acetic Acid] | – | < 0.1 µM | –
Cc1nc(C)c([C@H](OC(C)(C)C)C(=O)O)c(N2CCC(C)(C)CC2)c1-c1ccc(OCCN2CCOCC2)cc1 [Example 5, (S)-2-(tert-Butoxy)-2-(4-(4,4-dimethylpiperidin-1-yl)-2,6-dimethyl-5-(4-(2-morpholinoethoxy)phenyl)pyridin-3-yl)acetic Acid] | – | < 0.1 µM | 0.021 µM
Cc1nc(C)c([C@H](OC(C)(C)C)C(=O)O)c(N2CCC(C)(C)CC2)c1-c1ccc(OC2CCC(c3ccc(F)cc3)CC2)cc1 (stereo partly drawn) [Example 16, (S)-2-(tert-Butoxy)-2-(4-(4,4-dimethylpiperidin-1-yl)-5-(4-((4-(4-fluorophenyl)cyclohexyl)oxy)phenyl)-2,6-dimethylpyridin-3-yl)acetic Acid] | – | < 0.1 µM | –
Cc1nc(C)c([C@H](OC(C)(C)C)C(=O)O)c(N2CCC(C)(C)CC2)c1-c1ccc(OCC2(c3ccc(F)cc3)CC2)cc1 [Example 11] | – | < 0.1 µM | 0.003 µM
Cc1nc(C)c([C@H](OC(C)(C)C)C(=O)O)c(N2CCC(C)(C)CC2)c1-c1ccc(OC2CCCC2c2ccc(F)cc2)cc1 (stereo partly drawn) [Example 17, (2S)-2-(tert-Butoxy)-2-(4-(4,4-dimethylpiperidin-1-yl)-5-(4-((2-(4-fluorophenyl)cyclopentyl)oxy)phenyl)-2,6-dimethylpyridin-3-yl)acetic acid] | – | < 0.1 µM | 0.012 µM
Cc1nc(C)c([C@H](OC(C)(C)C)C(=O)O)c(N2CCC(C)(C)CC2)c1-c1ccc(OCC2CCC(C)CC2)cc1 (stereo partly drawn) [Example 8, (S)-2-(tert-Butoxy)-2-(4-(4,4-dimethylpiperidin-1-yl)-2,6-dimethyl-5-(4-((4-methylcyclohexyl)methoxy)phenyl)pyridin-3-yl)acetic Acid] | – | < 0.1 µM | –
Cc1nc(C)c([C@H](OC(C)(C)C)C(=O)O)c(N2CCC(C)(C)CC2)c1-c1ccc(OCCN2CCC(C)CC2)cc1 [Example 7, (S)-2-(tert-Butoxy)-2-(4-(4,4-dimethylpiperidin-1-yl)-2,6-dimethyl-5-(4-(2-(4-methylpiperidin-1-yl)ethoxy)phenyl)pyridin-3-yl)acetic Acid] | – | < 0.1 µM | –
Cc1nc(C)c([C@H](OC(C)(C)C)C(=O)O)c(N2CCC(C)(C)CC2)c1-c1ccc(OCCN2CCN(Cc3ccc(F)cc3)CC2)cc1 [Example 10, (S)-2-(tert-Butoxy)-2-(4-(4,4-dimethylpiperidin-1-yl)-5-(4-(2-(4-(4-fluorobenzyl)piperazin-1-yl)ethoxy)phenyl)-2,6-dimethylpyridin-3-yl)acetic Acid] | – | < 0.1 µM | –
Cc1nc(C)c([C@H](OC(C)(C)C)C(=O)O)c(N2CCC(C)(C)CC2)c1-c1ccc(OC2COCC2c2ccc(F)cc2)cc1 (stereo partly drawn) [Example 19, (2S)-2-(tert-Butoxy)-2-(4-(4,4-dimethylpiperidin-1-yl)-5-(4-((4-(4-fluorophenyl)tetrahydrofuran-3-yl)oxy)phenyl)-2,6-dimethylpyridin-3-yl)acetic acid] | – | < 0.1 µM | –
Cc1nc(C)c([C@H](OC(C)(C)C)C(=O)O)c(N2CCC(C)(C)CC2)c1-c1ccc(OCCN2CCCCC2)cc1 [Example 4, (S)-2-(tert-Butoxy)-2-(4-(4,4-dimethylpiperidin-1-yl)-2,6-dimethyl-5-(4-(2-(piperidin-1-yl)ethoxy)phenyl)pyridin-3-yl)acetic Acid] | – | < 0.1 µM | –
Cc1nc(C)c([C@H](OC(C)(C)C)C(=O)O)c(N2CCC(C)(C)CC2)c1-c1ccc(OC2CCOc3ccccc32)cc1 (stereo partly drawn) [Example 3, (2S)-2-(tert-Butoxy)-2-(5-(4-(chroman-4-yloxy)phenyl)-4-(4,4-dimethylpiperidin-1-yl)-2,6-dimethylpyridin-3-yl)acetic Acid] | – | < 0.1 µM | –
Cc1nc(C)c([C@H](OC(C)(C)C)C(=O)O)c(N2CCC(C)(C)CC2)c1-c1ccc(OCCC2CCCCC2)cc1 [Example 2, (S)-2-(tert-Butoxy)-2-(5-(4-(2-cyclohexylethoxy)phenyl)-4-(4,4-dimethylpiperidin-1-yl)-2,6-dimethylpyridin-3-yl)acetic Acid] | – | < 0.1 µM | 0.034 µM
Cc1nc(C)c([C@H](OC(C)(C)C)C(=O)O)c(N2CCC(C)(C)CC2)c1-c1ccc(OC2CCCC2c2ccc(F)cc2)cc1 (stereo partly drawn) [Example 18, (2S)-2-(tert-Butoxy)-2-(4-(4,4-dimethylpiperidin-1-yl)-5-(4-((2-(4-fluorophenyl)cyclopentyl)oxy)phenyl)-2,6-dimethylpyridin-3-yl)acetic acid] | < 0.1 µM | – | –
Cc1nc(C)c([C@H](OC(C)(C)C)C(=O)O)c(N2CCC(C)(C)CC2)c1-c1ccc(OC2CC(c3ccc(F)cc3)C2)cc1 (stereo partly drawn) [Example 15, (S)-2-(tert-Butoxy)-2-(4-(4,4-dimethylpiperidin-1-yl)-5-(4-(3-(4-fluorophenyl)cyclobutoxy)phenyl)-2,6-dimethylpyridin-3-yl)acetic Acid] | – | < 0.1 µM | –
Cc1nc(C)c([C@H](OC(C)(C)C)C(=O)O)c(N2CCC(C)(C)CC2)c1-c1ccc(OCCN2CCSCC2)cc1 [Example 13, (S)-2-(tert-Butoxy)-2-(4-(4,4-dimethylpiperidin-1-yl)-2,6-dimethyl-5-(4-(2-thiomorpholinoethoxy)phenyl)pyridin-3-yl)acetic Acid] | – | < 0.1 µM | 0.003 µM
Cc1nc(C)c([C@H](OC(C)(C)C)C(=O)O)c(N2CCC(C)(C)CC2)c1-c1ccc(OCCN2CCN(C)CC2)cc1 [Example 1, (S)-2-(tert-Butoxy)-2-(4-(4,4-dimethylpiperidin-1-yl)-2,6-dimethyl-5-(4-(2-(4-methylpiperazin-1-yl)ethoxy)phenyl)pyridin-3-yl)acetic Acid] | – | 0.1 to 1 µM | 0.117 µM
COc1cccc(C2CCN(CCOc3ccc(-c4c(C)nc(C)c([C@H](OC(C)(C)C)C(=O)O)c4N4CCC(C)(C)CC4)cc3)CC2)c1 [Example 6, (S)-2-(tert-Butoxy)-2-(4-(4,4-dimethylpiperidin-1-yl)-5-(4-(2-(4-(3-methoxyphenyl)piperidin-1-yl)ethoxy)phenyl)-2,6-dimethylpyridin-3-yl)acetic Acid] | – | < 0.1 µM | –
